The values that follow come from patent US20230167073A1 (Teijin Pharma Limited, priority 2020, published 2023).

This experiment has as its target T1, Human TRPC6 (Homo sapiens, UniProt Q9Y210).
T1 construct: expressed in transfected cells
T1 sequence (Q9Y210 1-931): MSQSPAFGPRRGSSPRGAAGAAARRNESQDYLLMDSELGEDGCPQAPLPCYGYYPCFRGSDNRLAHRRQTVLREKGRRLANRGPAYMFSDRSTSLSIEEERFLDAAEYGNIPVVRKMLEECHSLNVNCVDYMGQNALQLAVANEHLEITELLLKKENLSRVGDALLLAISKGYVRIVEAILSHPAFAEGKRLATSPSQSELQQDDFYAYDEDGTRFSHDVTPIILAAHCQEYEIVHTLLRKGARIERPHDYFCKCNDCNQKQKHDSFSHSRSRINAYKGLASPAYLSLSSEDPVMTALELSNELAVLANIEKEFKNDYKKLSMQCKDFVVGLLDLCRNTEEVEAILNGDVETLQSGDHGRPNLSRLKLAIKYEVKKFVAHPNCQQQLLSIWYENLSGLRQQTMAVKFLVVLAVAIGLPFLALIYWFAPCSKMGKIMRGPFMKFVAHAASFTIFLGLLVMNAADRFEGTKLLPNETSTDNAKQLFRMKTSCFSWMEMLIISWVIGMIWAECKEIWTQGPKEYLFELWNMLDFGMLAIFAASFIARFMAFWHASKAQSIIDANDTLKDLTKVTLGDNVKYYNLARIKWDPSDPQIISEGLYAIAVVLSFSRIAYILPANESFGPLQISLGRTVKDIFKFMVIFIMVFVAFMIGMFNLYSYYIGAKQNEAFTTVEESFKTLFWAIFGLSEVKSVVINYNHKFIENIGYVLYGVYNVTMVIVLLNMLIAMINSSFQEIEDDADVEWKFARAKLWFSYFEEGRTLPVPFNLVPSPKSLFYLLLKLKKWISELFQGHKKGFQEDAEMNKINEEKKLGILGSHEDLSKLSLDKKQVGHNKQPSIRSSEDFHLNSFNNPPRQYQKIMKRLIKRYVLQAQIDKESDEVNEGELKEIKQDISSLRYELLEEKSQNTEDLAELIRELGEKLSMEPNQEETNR
Description: Evaluation of TRPC6 channel inhibitory activity (1), FLIPR Calcium 5 Assay Kit, OAG stimulation (Compound Nos. 1-1293). The note with it: Human TRPC6 stably-expressing cells, OAG 30 μM, FLIPR Calcium 5 Assay Kit; read-out: Inhibitory activity (pIC50 class) (converted). The format is cell-based. As to the method: Evaluation of TRPC6 Channel Inhibitory Activity (1) (Compound Nos. 1-1293)
In order to investigate TRPC6 channel inhibitory activity of the compounds, evaluation was conducted using FLIPR® Calcium 5 Assay Kit (Molecular Devices) in accordance with the following procedure. Human TRPC6 stably-expressing cells were seeded in a 384-well black clear bottom plate at a density of 5×10^3/well and cultured in an incubator at 37° C. 5% CO2 for 24 hours. Thereafter, 25 μL of a Non Wash Dye Solution, prepared using Component A, 20 mM HEPES-HBSS and 250 mM probenecid, all of which are included in the kit, was added to each well, and the plate was incubated for 30 minutes. A volume of 12.5 μL of a compound solution was added into each well while the fluorescence was measured with FLIPR tetra. After 20 minutes, 12.5 μL of a 1-oleoyl-2-acetyl glycerol (OAG) solution was added at a final concentration of 30 μM. The difference between the minimum fluorescence intensity before the addition of the compound and the maximum fluorescence intensity after the addition of OAG was defined as a signal. An inhibition rate was calculated, assuming the average signal of wells without the compound as the inhibition rate of 0% and the average signal of wells without the compound and OAG as the inhibition rate of 100%. The calculated inhibition rate was analyzed by a four-parameter logistic regression to quantify the inhibition rate in the logarithm of the inverse of the effective concentration which gives a 50% inhibition rate (pIC50). The intensity was expressed by the following symbols (+, ++, +++).
For the molecule `Cn1nc(-c2ccccc2)cc1Oc1nc(Cl)ccc1-c1ccc(CN)cn1` [compound 1293, [6-[6-chloro-2-(2-methyl-5-phenylpyrazol-3-yl)oxypyridin-3-yl]pyridin-3-yl]methanamine], the IC50 is 10 to 1000 nM.
For the molecule `Cc1cc(Oc2cc(C#N)ccc2-c2ccc(CN)n3cnnc23)cc(N2CCOCC2)n1` [compound 590, 4-[5-(aminomethyl)-[1,2,4]triazolo[4,3-a]pyridin-8-yl]-3-(2-methyl-6-morpholin-4-ylpyridin-4-yl)oxybenzonitrile], the IC50 was greater than 1000 nM.
As to `Cn1nc(C(C)(C)C)cc1C(=O)c1cc(C#N)ccc1-c1ncc(CN)cn1` [Compound No. 1030, 4-[5-(Aminomethyl)pyrimidin-2-yl]-3-(5-tert-butyl-2-methylpyrazole-3-carbonyl)benzonitrile], the IC50 is less than 10 nM.
Take `N#Cc1ccc(-c2ncc(CCN)cn2)c(Oc2nnc(-c3cccnc3)s2)c1` [compound 729, 4-[5-(2-aminoethyl)pyrimidin-2-yl]-3-[(5-pyridin-3-yl-1,3,4-thiadiazol-2-yl)oxy]benzonitrile]: the IC50 was 10 to 1000 nM.
With `Cn1nc(-c2ccccc2)cc1Oc1cc(C#N)ccc1-c1ncc2c(n1)CCNC2` [Compound 292, 3-(2-methyl-5-phenylpyrazol-3-yl)oxy-4-(5,6,7,8-tetrahydropyrido[4,3-d]pyrimidin-2-yl)benzonitrile] the figure was 10 to 1000 nM.
With `Cc1nc(Oc2cc(C#N)ccc2-n2cc([C@@H](O)CN)cn2)cc(-c2ccccc2Cl)n1` [compound 340, 4-[4-[(1R)-2-amino-1-hydroxyethyl]pyrazol-1-yl]-3-[6-(2-chlorophenyl)-2-methylpyrimidin-4-yl]oxybenzonitrile] the figure was 10 to 1000 nM; with `Cc1nn(-c2ccccn2)cc1Cc1cc(C#N)ccc1-c1ncc(CCN)cn1` [compound 1202, 4-[5-(2-aminoethyl)pyrimidin-2-yl]-3-[(3-methyl-1-pyridin-2-ylpyrazol-4-yl)methyl]benzonitrile], less than 10 nM; with `Cc1c(Oc2cc(C#N)ccc2-c2ncc(CN)cn2)cnn1CC(F)(F)F` [compound 837, 4-[5-(aminomethyl)pyrimidin-2-yl]-3-[5-methyl-1-(2,2,2-trifluoroethyl)pyrazol-4-yl]oxybenzonitrile], 10 to 1000 nM.
Turning to `CCN(CC)c1cc(Oc2cc(C#N)ccc2-c2ncc(CCN)cn2)n(C)n1` [compound 656, 4-[5-(2-aminoethyl)pyrimidin-2-yl]-3-[5-(diethylamino)-2-methylpyrazol-3-yl]oxybenzonitrile], the IC50 is less than 10 nM.
Then `Cc1nc(Oc2cc(C#N)ccc2-c2ccc(CCN)cc2)cc(N2CCCCCC2)n1` [Compound 27, 4-[4-(2-aminoethyl)phenyl]-3-[6-(azepan-1-yl)-2-methylpyrimidin-4-yl]oxybenzonitrile], with 10 to 1000 nM.
On to `Cn1nc(-c2ccccn2)cc1Oc1cc(C#N)ccc1-c1ccc(CC(C)(C)N)cn1` [compound 338, 4-[5-(2-amino-2-methylpropyl)pyridin-2-yl]-3-(2-methyl-5-pyridin-2-ylpyrazol-3-yl)oxybenzonitrile], for which the IC50 was less than 10 nM.
Then `Cc1nc(OCC(F)F)cc(Oc2cc(C#N)ccc2-c2ncc(CCN)cn2)n1` [compound 891, 4-[5-(2-aminoethyl)pyrimidin-2-yl]-3-[6-(2,2-difluoroethoxy)-2-methylpyrimidin-4-yl]oxybenzonitrile], with 10 to 1000 nM.
As to `Cn1nc(C2CC2)cc1Oc1cc(C#N)ccc1-c1ccc(C[C@H](N)C(=O)O)cn1` [compound 612, (2S)-2-amino-3-[6-[4-cyano-2-(5-cyclopropyl-2-methylpyrazol-3-yl)oxyphenyl]pyridin-3-yl]propanoic acid], the IC50 was greater than 1000 nM.
Turning to `Cc1nc(OCCC(C)(C)C)cc(Oc2cc(C#N)ccc2-c2ccc(CCN)cc2)n1` [Compound 42, 4-[4-(2-aminoethyl)phenyl]-3-[6-(3,3-dimethylbutoxy)-2-methylpyrimidin-4-yl]oxybenzonitrile], the IC50 was greater than 1000 nM.
Consider `C#CCOc1cc(Oc2cc(C#N)ccc2-c2ncc(CCN)cn2)nc(C)n1` [compound 926, 4-[5-(2-aminoethyl)pyrimidin-2-yl]-3-(2-methyl-6-prop-2-ynoxypyrimidin-4-yl)oxybenzonitrile], for which the IC50 was greater than 1000 nM.
For the molecule `Cn1ccnc1-c1cc(Oc2cc(C#N)ccc2-c2ncc(CN)cn2)n(C)n1` [compound 936, 4-[5-(aminomethyl)pyrimidin-2-yl]-3-[2-methyl-5-(1-methylimidazol-2-yl)pyrazol-3-yl]oxybenzonitrile], the IC50 was 10 to 1000 nM.
On to `Cn1nc(-c2cccc(F)c2)cc1Oc1cc(C#N)ccc1-c1ccc(C(O)CN)cc1` (stereo not drawn) [Compound 198, 4-[4-(2-amino-1-hydroxyethyl)phenyl]-3-[5-(3-fluorophenyl)-2-methylpyrazol-3-yl]oxybenzonitrile], for which the IC50 is less than 10 nM.
Consider `Cc1cc(Oc2cc(C#N)ccc2-c2ncc(CCN)cn2)cc(N2CCOCC2)n1` [Compound 250, 4-[5-(2-aminoethyl)pyrimidin-2-yl]-3-(2-methyl-6-morpholin-4-ylpyridin-4-yl)oxybenzonitrile], for which the IC50 was less than 10 nM.
For the molecule `N#Cc1ccc(-c2ccc(CCN)cn2)c(Oc2cnnc(N3CCCCC3)c2)c1` [Compound 90, 4-[5-(2-aminoethyl)pyridin-2-yl]-3-(6-piperidin-1-ylpyridazin-4-yl)oxybenzonitrile], the IC50 was 10 to 1000 nM.
With `Cn1nc(C2CC2)cc1Oc1cc(C#N)ccc1-c1ccc2c(N)noc2c1` [compound 414, 4-(3-amino-1,2-benzoxazol-6-yl)-3-(5-cyclopropyl-2-methylpyrazol-3-yl)oxybenzonitrile], the IC50 was greater than 1000 nM.
As to `Cn1nc(-c2ccncn2)cc1Oc1cc(C#N)ccc1-c1ncc(CCN)cn1` [compound 949, 4-[5-(2-aminoethyl)pyrimidin-2-yl]-3-(2-methyl-5-pyrimidin-4-ylpyrazol-3-yl)oxybenzonitrile], the IC50 is less than 10 nM.
With `Cn1nc(-c2ccccc2)cc1Oc1cc(C#N)ccc1-c1ccc(C(N)C(=O)O)cn1` (stereo not drawn) [compound 428, 2-amino-2-[6-[4-cyano-2-(2-methyl-5-phenylpyrazol-3-yl)oxyphenyl]pyridin-3-yl]acetic acid], the IC50 is 10 to 1000 nM.
As to `Cc1nc(Sc2cc(C#N)ccc2-n2cc(CCN)cn2)cc(N2CCCC2)n1` [compound 1253, 4-[4-(2-aminoethyl)pyrazol-1-yl]-3-(2-methyl-6-pyrrolidin-1-ylpyrimidin-4-yl)sulfanylbenzonitrile], the IC50 is 10 to 1000 nM.
Consider `Cn1nc(Oc2cc(C#N)ccc2-c2ccc(CCN)cn2)cc1N1CCOCC1` [compound 557, 4-[5-(2-aminoethyl)pyridin-2-yl]-3-(1-methyl-5-morpholin-4-ylpyrazol-3-yl)oxybenzonitrile], for which the IC50 is 10 to 1000 nM.
In the case of `Cc1c(Oc2cc(F)ccc2-c2ncc(CCN)cn2)cnn1CC(C)(C)C` [compound 986, 2-[2-[2-[1-(2,2-dimethylpropyl)-5-methylpyrazol-4-yl]oxy-4-fluorophenyl]pyrimidin-5-yl]ethanamine], the IC50 was 10 to 1000 nM.
Take `Cn1nc(-c2cncc(F)c2)cc1Oc1cc(C#N)ccc1-c1ncc(CN)cn1` [compound 928, 4-[5-(aminomethyl)pyrimidin-2-yl]-3-[5-(5-fluoropyridin-3-yl)-2-methylpyrazol-3-yl]oxybenzonitrile]: the IC50 is 10 to 1000 nM.
Consider `N#Cc1ccc(-n2cc(C(O)CN)cn2)c(Cn2cnc(-c3ccccc3)c2)c1` (stereo not drawn) [compound 1127, 4-[4-(2-amino-1-hydroxyethyl)pyrazol-1-yl]-3-[(4-phenylimidazol-1 yl)methyl]benzonitrile], for which the IC50 was greater than 1000 nM.
